{
  "source": "patent US9944607B2",
  "about": "“Thiohydantoin derivatives and uses thereof” (Whitehead Institute for Biomedical Research, priority 2012, dated 2018)",
  "key": {"Candida albicans CaCi-2 [1]": {"test_system": "Candida albicans CaCi-2", "test": "Colony counts over time, C. albicans CaCi-2 in RPMI (FIG. 15)", "type": "cell-based", "details": "colonies counted after 24 and 48 hours", "protocol": "[…] The CaCi-2 strain was inoculated into RPMI media at 10^3 CFU/mL in the presence or absence of 5 μM I-B-4 (ML316) and 32 ug/mL fluconazole. Colonies were plated from the cultures after 24 and 48 hours and counted."}, "[2]": {"test_system": "NIH-3T3 mammalian fibroblasts", "test": "Counterscreen mammalian cell toxicity assay (Alamar Blue)", "type": "cell-based, murine", "details": "for IC50: Mus musculus", "summary_of_the_method": "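Quiescent NIH-3T3 fibroblasts, cultured overnight, exposed to 100 nL pinned compound for 48 h at 37° C, 5% CO2. Alamar Blue added to 1:200 final, 2-3 h further incubation; fluorescence (RFU) read as relative cell growth.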"}, "Candida albicans CaCi-2 [3]": {"test_system": "Candida albicans CaCi-2", "test": "Broth microdilution growth inhibition of C. albicans CaCi-2 in presence or absence of fluconazole", "type": "cell-based", "details": "CACI2, RPMI media", "protocol": "Growth inhibition of I-B-4 (ML316) against Candida albicans CaCi-2 in the presence or absence of fluconazole was assessed using the broth microdilution method with RPMI media."}, "Candida albicans CaCi-17": {"test_system": "Candida albicans CaCi-17", "test": "Primary assay: C. albicans CaCi-17 growth inhibition (Alamar Blue)", "type": "cell-based", "details": "for IC50: Candida albicans"}, "[4]": {"test": "Solubility in PBS pH 7.4 with 1% DMSO", "details": "for solubility at 24 h: pH 7.4, aqueous buffer, kinetic from dmso stock; for PBS Solubility: PBS pH 7.4 with 1% DMSO, 24 hours, room temperature", "summary_of_the_method": "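Compounds at 100 μM in duplicate in PBS pH 7.4 containing 1% DMSO, shaken 24 hours at room temperature. Concentration measured by UPLC-MS with SIR detection, fitted to a two-point calibration from matching 100% DMSO samples.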"}, "C. glabrata (ATCC 2001)": {"test_system": "C. glabrata (ATCC 2001)", "test": "Secondary C. glabrata inhibition in glycerol media (OD600)", "type": "cell-based, Candida glabrata", "details": "for IC50: Nakaseomyces glabratus", "excerpt": "Cell Lines. • Candida albicans CaCi-2; a drug-resistant clinical isolate was provided by the Whitehead Institute (Redding et al., Clin. Infect. Dis. 1994, 18(2):240-2). This strain was used for the primary assay. • Candida albicans CaCi-17; a strongly drug-resistant clinical isolate was provided by the Whitehead Institute (Redding et al., Clin. Infect. Dis. 1994, 18(2):240-2). This strain was used for the primary assay • Saccharyomyces cerevisiae W303-1a (ATCC 208352); a well-characterized Saccharomyces strain used for determination of glycolytic vs. respiratory metabolism, as well as in the mitochondrial disruption assay. • Candida glabrata (ATCC 2001); used for determination of glycolytic vs. respiratory metabolism. • NIH-3T3 mammalian fibroblasts (ATCC; CRL no.1658); used for mammalian toxicity assays. […]\nSaccharomyces, while not a major human pathogen, is a useful lab model with well-developed genetic tools available. Candida glabrata is an increasingly prominent clinical problem for immune-compromised patients but with fewer genetic tools available with which to study it. These organisms can utilize alternative metabolic pathways to support growth and survival depending on the carbon source. By comparing the concentration-dependent inhibition of yeast growth in glycerol relative to glucose media, a quantitative assessment of a compound's ability to disrupt respiration can be determined. […].\nClear, flat bottom, black 384-well plates (Corning Catalog no. 3712BC; Lot no. 35808016); Amphotericin B (Sigma Catalog no. A2411) 15 mM stock solution in DMSO; Pen/Strep (Gibco Catalog no. 10378-016; Lot no21040170) 100× in PBS.\nSynthetic defined growth medium. Complete Supplement Mixture; (Sunrise Science, Catalog No. 1001-100); Yeast Nitrogen Base without ammonium sulfate (MP Biomedicals, Catalog No. 4027-012); Glycerol (Sigma Catalog No. G-9012). • Prepare medium by dissolving 0.79 g Complete Supplement Mixture and 1.7 g Yeast Nitrogen Base in 800 mL water. • Add 20 mL of glycerol. Adjust final volume to 1000 mL. Filter sterilize.\nFungal Inoculum. Test Strains: C. glabrata (ATCC 2001) and Saccharomyces cerevisiae W303. • Inoculate 100 μL of yeast from cryopreserved stock into 250 mL shaker flask containing 20 mL growth medium. Shake at 30° C. overnight (about 16 hours). • Read OD 600 of 1 mL of fungal culture in a cuvette using a standard optical density reader (Eppendorf BioPhotometer Plus), with growth medium as a background blank. • Dilute to desired volume of fungal inoculum to produce an OD600 reading of 0.005 (S. cerevisiae) or 0.004 (C. glabrata).\nProcedures • Use a Thermo Combi nL to dispense 20 μL/well of assay media into all wells. • Add 2 μL of Amphotericin B to control wells. • Pin 100 nL of test compound from compound plates into assay plates using a CyBi-Well pin tool. • Dispense 20 μL/well of culture into the assay media in all wells. • Incubate the plates in a humidified (90% humidity) Liconic incubator at 37° C. without agitation for 48 hours. • Shake plates briefly. • Read OD600 of wells on a standard plate reader as measure of relative fungal growth. Envision (Perkin Elmer) plate reader settings: Ex Photometric 600, Top read. Secondary Glucose Assay Protocol (AID 623971, 623967, 624013, 624025) Materials and Reagents"}, "HeLa cells": {"test_system": "HeLa cells", "details": "Hayakawa et al. 1971, cited from earlier work"}, "[5]": {"target": "S. cerevisiae cytochrome bc1 complex (Saccharomyces cerevisiae, UniProt P00163)", "details": "cited from earlier work"}, "[6]": {"details": "phosphate buffered saline with 1% DMSO"}},
  "note": "Like-named read-outs stand apart in the source and are kept apart here.",
  "data": [
    {"smiles": "CCOC(=O)N1C(=O)C2(CCCCC2)N(c2ccc(F)cc2)C1=S", "note": "[CID 56604860, Ethyl 1-(4-fluorophenyl)-4-oxo-2-thioxo-1,3-diazaspiro[4.5]decane-3-carboxylate]", "values": [
      {"measurement": "Cytotoxicity to fluconazole-resistant C. albicans CaCi-2, compound alone", "setting": "Candida albicans CaCi-2 [1]; 5 μM I-B-4", "value": "cytotoxic"},
      {"measurement": "Cytotoxicity to fluconazole-resistant C. albicans CaCi-2, combination with fluconazole (FCZ)", "setting": "Candida albicans CaCi-2 [1]; 5 μM I-B-4 and 32 ug/mL fluconazole", "value": "cytotoxic"},
      {"measurement": "IC50", "setting": "[2]; NIH3T3, read-out: Murine 3T3 fibroblasts growth inhibition (fibroblast toxicity) IC50", "value": "> 26", "unit": "µM"},
      {"measurement": "Toxicity against mammalian fibroblasts (in words)", "setting": "[2]; at concentrations up to 26 μM", "value": "no apparent toxicity"},
      {"measurement": "IC50", "setting": "Candida albicans CaCi-2 [3]; absence of fluconazole (FIG. 8), read-out: IC50 against C. albicans CaCi-2 growth, compound alone", "value": 0.12, "unit": "µM"},
      {"measurement": "IC50", "setting": "Candida albicans CaCi-2 [3]; presence of fluconazole (FIG. 8), read-out: IC50 against C. albicans CaCi-2 growth, with FCZ", "value": 0.01, "unit": "µM"},
      {"measurement": "IC50", "setting": "Candida albicans CaCi-17; CACI17, read-out: C. albicans CaCi-17 growth inhibition IC50", "value": 1, "unit": "µM"},
      {"measurement": "Fold Selective (Anti-target IC50/Target IC50), fibroblast toxicity vs CaCi-17 growth inhibition", "setting": "Candida albicans CaCi-17; Table 12", "value": ">37", "unit": "x"},
      {"measurement": "solubility at 24 h", "setting": "[4]; [6]", "value": 1.1, "unit": "µM"},
      {"measurement": "Reduction in potency when glucose is available instead of glycerol, C. glabrata", "setting": "C. glabrata (ATCC 2001)", "value": "greater than 250 fold"},
      {"measurement": "IC50", "setting": "C. glabrata (ATCC 2001); ATCC2001, read-out: Growth inhibition of C. glabrata on glycerol IC50", "value": 0.011, "unit": "µM"},
      {"measurement": "Fold Selective (Glucose IC50/Glycerol IC50), C. glabrata", "setting": "C. glabrata (ATCC 2001); Table 13", "value": ">272", "unit": "x"}
    ]},
    {"smiles": "CCOC(=O)N1C(=O)C2(CCCCC2)N(c2ccc(C)cc2)C1=S", "note": "[compound 3889161]", "values": [
      {"measurement": "Growth Inhibition Activity, IC50 (μM), 3T3 Fibroblasts (n = 1)", "setting": "[2]; Table 3, n = 1, 48 hours, tested up to 26 μM", "value": "Inactive"},
      {"measurement": "Growth Inhibition Activity, IC50 (μM), 3T3 Fibroblasts (n = 1)", "setting": "[2]; Table 4, n = 1, 48 hours, tested up to 26 μM", "value": "Inactive"},
      {"measurement": "Growth Inhibition Activity, IC50 (μM), 3T3 Fibroblasts (n = 1)", "setting": "[2]; Table 5, n = 1, 48 hours, tested up to 26 μM", "value": "Inactive"},
      {"measurement": "Growth Inhibition Activity, IC50 (μM), 3T3 Fibroblasts (n = 1)", "setting": "[2]; Table 6, n = 1, 48 hours, tested up to 26 μM", "value": "Inactive"},
      {"measurement": "Growth Inhibition Activity, IC50 (μM), 3T3 Fibroblasts (n = 1)", "setting": "[2]; Table 7, n = 1, 48 hours, tested up to 26 μM", "value": "Inactive"},
      {"measurement": "IC50", "setting": "Candida albicans CaCi-17; CACI17, 48 h, read-out: Growth Inhibition Activity, IC50 (μM), C. albicans (n = 3) CaCi-17", "value": 8.5, "unit": "µM"},
      {"measurement": "PBS Solubility", "setting": "[4]; Table 4", "value": "<1.0", "unit": "µM"},
      {"measurement": "PBS Solubility", "setting": "[4]; Table 5", "value": "<1.0", "unit": "µM"},
      {"measurement": "PBS Solubility", "setting": "[4]; Table 6", "value": "<1.0", "unit": "µM"},
      {"measurement": "PBS Solubility", "setting": "[4]; Table 7", "value": "<1.0", "unit": "µM"},
      {"measurement": "solubility at 24 h", "setting": "[4]; [6]", "value": "< 1", "unit": "µM"},
      {"measurement": "IC50", "setting": "C. glabrata (ATCC 2001); ATCC2001, 48 h, read-out: Growth Inhibition Activity, IC50 (μM), C. glabrata (n = 3) On glycerol", "value": 0.041, "unit": "µM"}
    ]},
    {"smiles": "CCOC(=O)N1C(=O)C2(CCCCC2)N(c2cccc(C)c2)C1=S", "note": "[compound 56604823]", "values": [
      {"measurement": "IC50", "setting": "[2]; NIH3T3, read-out: Growth Inhibition Activity, IC50 (μM), 3T3 Fibroblasts (n = 1), Table 4, n = 1, 48 hours, tested up to 26 μM", "value": 24.2, "unit": "µM"},
      {"measurement": "IC50", "setting": "Candida albicans CaCi-17; CACI17, Table 4, n = 3, 48 hours, tested up to 26 μM, read-out: Growth Inhibition Activity, IC50 (μM), C. albicans (n = 3) CaCi-17", "value": 8.2, "unit": "µM"},
      {"measurement": "solubility at 24 h", "setting": "[4]; [6]", "value": 2.6, "unit": "µM"},
      {"measurement": "IC50", "setting": "C. glabrata (ATCC 2001); ATCC2001, Table 8, n = 3, glycerol media, 48 hours, tested up to 3 μM, read-out: Growth Inhibition Activity, IC50 (μM), C. glabrata (n = 3) On glycerol", "value": 0.034, "unit": "µM"}
    ]},
    {"smiles": "C/C=C/C1[C@H]2C[C@@H](C)CC[C@@H]2C(C)=C[C@H]1C(=O)c1c(O)c(-c2ccc(O)cc2)c[nH]c1=O", "note": "(stereo partly drawn) [ilicicolin H, reference compound]", "values": [
      {"measurement": "IC50", "setting": "[2]; NIH3T3, Tables 9, 10, 12, AID 602394, read-out: Murine 3T3 fibroblasts growth inhibition (fibroblast toxicity) IC50", "value": 10, "unit": "µM"},
      {"measurement": "MIC against HeLa cells", "setting": "HeLa cells", "value": 2, "unit": "µg/mL"},
      {"measurement": "MIC against HeLa cells", "setting": "HeLa cells; same value converted", "value": 4.6, "unit": "µM"},
      {"measurement": "Selectivity for S. cerevisiae (fungal) bc1 complex over bovine bc1 complex", "setting": "[5]; biochemical assays with purified proteins, literature", "value": 100, "unit": "fold"},
      {"measurement": "IC50", "setting": "[5]; read-out: IC50, purified S. cerevisiae cytochrome bc1 complex, studies by Trumpower et al.", "value": 0.003, "unit": "µM"},
      {"measurement": "IC50", "setting": "Candida albicans CaCi-17; CACI17, Tables 9, 10, 12, AID 623897, read-out: C. albicans CaCi-17 growth inhibition IC50", "value": "> 3", "unit": "µM"},
      {"measurement": "solubility at 24 h", "setting": "[4]", "value": "< 1", "unit": "µM"},
      {"measurement": "IC50", "setting": "C. glabrata (ATCC 2001); ATCC2001, figure legends and Tables 9, 10, 13, AID 623965, read-out: Growth inhibition of C. glabrata on glycerol IC50", "value": 2.6, "unit": "µM"}
    ]}
  ]
}
